Measurements reported in patent US20160151337A1, “ANNELATED PYRROLES AND THEIR USE AS CRAC INHIBITORS” (Grünenthal GmbH, priority 2013, published 2016).

Columns and labels:
[1] = test system: Interleukin-2 (IL-2) production/release in Jurkat T cells; test: Jurkat IL-2 Production Assay (PHA-stimulated, IL-2 AlphaLisa); assay type: cell-based; details: Homo sapiens, PHA 15 μg/ml, 22 h, inhibition of IL-2 production
Method: The effect of compounds of the invention on Interleukin-2 (IL-2) production/release was tested in the Jurkat T cell line (ECACC) clone E6-1.
Jurkat T cells were cultured in DMEM/F12/Glutamax (Gibco) containing 10% FCS (Gibco), and maintained at 37° C., 5% CO2. Cells were split twice a week [5*10^6 (Mon-Thu) and 1*10^7 (Thu-Mon) cells/50 ml medium in 1-175 ZK culture flasks, respectively].
Prior to experiment, cells were seeded on 96 well plates (Cellstar 96 Well; Cat No. 655180, Greiner bio-one) at a density of 5*10^5 cells/well in DMEM/F12/Glutamax (Gibco) containing 10% FCS (Gibco), and incubated for 60 min at 37° C., 5% CO2. Subsequently, compounds were added and cells were allowed to incubate for 30 min at 37° C., 5% CO2. Cells were then stimulated with 15 μg/ml Phyto-hemagglutinin (PHA; Sigma) for 22 hours at 37° C., 5% CO2.
Before sampling of the supernatants, cells were spun down (200*g/5 min/RT). The amount of IL-2 released into the supernatant was quantified with the human IL-2 AlphaLisa kit (Perkin Elmer) according to manufacturer's instructions. Luminescence proximity measurements were carried out in the Synergy H4 reader (BioTek) employing the fluorescence setting of the reader (ex: 680/30 nm; em: 620/40 nm).
Inhibition of IL-2 production/release in/from Jurkat T cells was quantified as follows: Zero percent inhibition (MAX) was defined as the [IL-2] determined in supernatants derived from cells to which PHA & DMSO-only had been added instead of compound. Hundred percent inhibition (MIN) was defined as the [IL-2] determined in supernatants derived from cells that had been pre-treated with 1 μM CyclosporineA (Sigma) before the addition of 15 μg/ml PHA.
For routine IC50 determinations of compounds, 8 concentrations of a serial dilution (1:3.16) were tested, starting off from 10 μM.

[2] = biological target: T1, CRAC channel (Homo sapiens, UniProt Q96D31); test: HEK Calcium Influx Assay (FLIPR), inhibition of store-operated Ca2+ entry after thapsigargin store depletion; assay type: cell-based; details: 10 μM compound, HEK293 cells, read-out: % inhib. [@ 10 μM] FLIPR
T1 construct: endogenous in cells; host or cells: HEK293 (ECACC), untransfected
Method: The effect of compounds of the invention on intracellular [Ca^2+] was tested in the HEK293 cell line (ECACC).
HEK293 cells were cultured in DMEM/F12/Glutamax (Gibco) containing 10% FCS (Gibco), and maintained at 37° C., 5% CO2. Cell were split twice a week [3*10^6 (Mon-Thu) and 1*10^6 (Thu-Mon) cells/50 ml medium in 1-175 ZK culture flasks, respectively]. Twenty four hours pre-experiment, cells were seeded on 96 well plates (Poly-D-Lysine 96 well Black/Clear Plate, BD Biocoat REF 356640) at a density of 40,000 cells/well in DMEM/F12 (Gibco) containing 10% FCS (Gibco), and maintained at 37° C., 5% CO2.
Prior to store-depletion, cell culture medium was removed and cells were loaded with the Calcium-sensitive fluorescent dye comprised within the Calcium-4-assay kit (Molecular Devices) in nominally Ca^2+-free HBS buffer (140 mM NaCl, 4 mM KCl, 0.2 mM MgCl2, 11 mM D-glucose, and 10 mM HEPES, pH 7.4) according to manufacturer's instruction for 60 min at 37° C., 5% CO2.
Passive depletion of intracellular Ca^2+-stores was then triggered by employing the SERCA inhibitor thapsigargin (2 μM final) for 10 min in the dark (RT). To prevent immediate Ca^2+-entry via the activated store-operated channels (SOCs), cells were maintained in Ca^2+-free HBS buffer comprising 100 μM EGTA during store-depletion.
Intracellular changes in [Ca^2+] were subsequently monitored with the FLIPR device (Molecular Devices). In brief, baseline imaging post-store depletion was allowed for 1 min before adjusting the extracellular buffer to 3 mM CaCl2. Increases in intracellular [Ca^2+] due to pre-activated SOC channels were monitored for 15 min until intracellular Ca^2+ levels had declined into a steady-state. Finally, compounds were administered, and Ca^2+ signals were recorded for additional 10 min.
Inhibition of endogenous SOC in HEK293 cells was quantified employing the average Ca^2+ signal measured from 9.5-10 min post-administration. Zero percent inhibition (MAX) was defined as the Ca^2+ signal recorded from wells to which DMSO-only had been added instead of compound. Hundred percent inhibition (MIN) was defined as the signal obtained from wells in which cells haven't been treated with TG prior to Ca^2+ addition and to which DMSO-only had been added instead of compound. For routine IC50 determinations of compounds, 8 concentrations of a serial dilution (1:3.16) were tested, starting off from 10 μM. Reliable IC50's could consequently be determined only, if they were at least sub 2.5-3 μM.

T1 sequence (Q96D31 whole entry): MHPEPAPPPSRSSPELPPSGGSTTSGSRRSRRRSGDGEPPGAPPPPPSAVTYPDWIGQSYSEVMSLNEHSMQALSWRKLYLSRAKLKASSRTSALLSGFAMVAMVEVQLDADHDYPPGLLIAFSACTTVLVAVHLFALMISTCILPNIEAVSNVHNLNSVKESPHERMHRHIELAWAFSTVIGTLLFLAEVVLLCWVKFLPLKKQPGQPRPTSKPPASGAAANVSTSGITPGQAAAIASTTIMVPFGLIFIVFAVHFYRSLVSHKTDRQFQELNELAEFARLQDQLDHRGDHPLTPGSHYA

Structure (SMILES): Cc1cc(S(C)(=O)=O)c(F)cc1N1CCc2[nH]c(C3CCCCC3)cc2C1 [Example 110, 2-Cyclohexyl-5-(5-fluoro-2-methyl-4-methylsulfonyl-phenyl)-4,5,6,7-tetrahydro-1H-pyrrolo[3,2-c]pyridine]
- IC50 [1]: 1 to 5 µM
- inhibition at 10 µM [2]: < 50%

Structure (SMILES): Cc1sc(-c2ccncc2)nc1N1CCc2[nH]c(-c3c(F)cccc3F)cc2C1 [Example 24, 4-[2-(2,6-Difluoro-phenyl)-4,5,6,7-tetrahydro-1H-pyrrolo[3,2-c]pyridin-5-yl]-5-methyl-2-pyridin-4-yl-thiazole]
- IC50 [1]: < 0.5 µM
- inhibition at 10 µM [2]: > 70%

Structure (SMILES): CC(=O)c1ccc(N2CCc3[nH]c(-c4c(F)cccc4F)cc3C2)c(C)c1 [Example 82, 1-[4-[2-(2,6-Difluoro-phenyl)-4,5,6,7-tetrahydro-1H-pyrrolo[3,2-c]pyridin-5-yl]-3-methyl-phenyl]-ethanone]
- IC50 [1]: 0.5 to 1 µM
- inhibition at 10 µM [2]: > 70%

Structure (SMILES): Cc1cc(S(C)(=O)=O)ncc1N1CCc2[nH]c(C3CCCOC3)cc2C1 (stereo not shown) [Example 115, 5-(4-Methyl-6-methylsulfonyl-pyridin-3-yl)-2-tetrahydro-pyran-3-yl-4,5,6,7-tetrahydro-1H-pyrrolo[3,2-c]pyridine]
- IC50 [1]: 1 to 5 µM
- inhibition at 10 µM [2]: < 50%

Structure (SMILES): Cc1cc(C)c(-c2cc3c([nH]2)CCN(c2cnc(C(F)(F)F)cc2C)C3)cn1 [Example 135, 2-(4,6-Dimethyl-pyridin-3-yl)-5-[4-methyl-6-(trifluoromethyl)-pyridin-3-yl]-4,5,6,7-tetrahydro-1H-pyrrolo[3,2-c]pyridine]
- IC50 [1]: 0.5 to 1 µM
- inhibition at 10 µM [2]: < 50%

Structure (SMILES): Cc1cc(C(F)(F)F)ncc1N1CCc2[nH]c(C3CCOCC3)cc2C1 [Example 93, 5-[4-Methyl-6-(trifluoromethyl)-pyridin-3-yl]-2-tetrahydro-pyran-4-yl-4,5,6,7-tetrahydro-1H-pyrrolo[3,2-c]pyridine]
- IC50 [1]: 1 to 5 µM
- inhibition at 10 µM [2]: > 70%

Structure (SMILES): Cc1cc(S(=O)(=O)NCC(F)(F)F)ccc1N1CCc2[nH]c(-c3c(F)cccc3F)cc2C1 [Example 136, 4-[2-(2,6-Difluoro-phenyl)-4,5,6,7-tetrahydro-1H-pyrrolo[3,2-c]pyridin-5-yl]-3-methyl-N-(2,2,2-trifluoro-ethyl)-benzenesulfonic acid amide]
- IC50 [1]: 1 to 5 µM
- inhibition at 10 µM [2]: < 50%

Structure (SMILES): Cc1cc(S(C)(=O)=O)ncc1N1CCc2[nH]c(-c3c(F)cccc3F)cc2C1 [Example 16, 2-(2,6-Difluoro-phenyl)-5-(4-methyl-6-methylsulfonyl-pyridin-3-yl)-4,5,6,7-tetrahydro-1H-pyrrolo[3,2-c]pyridine]
- IC50 [1]: < 0.5 µM
- inhibition at 10 µM [2]: > 70%

Structure (SMILES): CCc1sc(-c2cccnc2)nc1N1CCc2[nH]c(-c3c(F)cccc3F)cc2C1 [Example 31, 4-[2-(2,6-Difluoro-phenyl)-4,5,6,7-tetrahydro-1H-pyrrolo[3,2-c]pyridin-5-yl]-5-ethyl-2-pyridin-3-yl-thiazole]
- IC50 [1]: < 0.5 µM
- inhibition at 10 µM [2]: < 50%

Structure (SMILES): COC(=O)c1ccc(N2CCc3[nH]c(-c4c(F)cccc4F)cc3C2)c(C)c1 [Example 13, 4-[2-(2,6-Difluoro-phenyl)-4,5,6,7-tetrahydro-1H-pyrrolo[3,2-c]pyridin-5-yl]-3-methyl-benzoic acid methyl ester]
- IC50 [1]: 0.5 to 1 µM
- inhibition at 10 µM [2]: < 50%

Structure (SMILES): Cc1nc(Cl)ccc1N1CCc2[nH]c(-c3c(F)cccc3F)cc2C1 [Example 15, 5-(6-Chloro-2-methyl-pyridin-3-yl)-2-(2,6-difluoro-phenyl)-4,5,6,7-tetrahydro-1H-pyrrolo[3,2-c]pyridine]
- IC50 [1]: 1 to 5 µM
- inhibition at 10 µM [2]: > 70%

Structure (SMILES): Cc1cc(C(F)(F)F)ncc1N1CCc2[nH]c(-c3cncc(F)c3C)cc2C1 [Example 141, 2-(5-Fluoro-4-methyl-pyridin-3-yl)-5-[4-methyl-6-(trifluoromethyl)-pyridin-3-yl]-4,5,6,7-tetrahydro-1H-pyrrolo[3,2-c]pyridine]
- IC50 [1]: < 0.5 µM
- inhibition at 10 µM [2]: > 70%

Structure (SMILES): Cc1sc(-c2cnccn2)nc1N1CCc2[nH]c(-c3c(F)cccc3F)cc2C1 [Example 26, 4-[2-(2,6-Difluoro-phenyl)-4,5,6,7-tetrahydro-1H-pyrrolo[3,2-c]pyridin-5-yl]-5-methyl-2-pyrazin-2-yl-thiazole]
- IC50 [1]: < 0.5 µM
- inhibition at 10 µM [2]: > 70%

Structure (SMILES): Cc1ccc(-c2nccs2)cc1N1CCc2[nH]c(-c3c(F)cccc3F)cc2C1 [Example 8, 2-[3-[2-(2,6-Difluoro-phenyl)-4,5,6,7-tetrahydro-1H-pyrrolo[3,2-c]pyridin-5-yl]-4-methyl-phenyl]-thiazole]
- IC50 [1]: < 0.5 µM
- inhibition at 10 µM [2]: > 70%

Structure (SMILES): Cc1cc(S(=O)(=O)N2CCCC2)ccc1N1CCc2[nH]c(-c3c(F)cccc3F)cc2C1 [Example 121, 2-(2,6-Difluoro-phenyl)-5-[2-methyl-4-(pyrrolidin-1-ylsulfonyl)-phenyl]-4,5,6,7-tetrahydro-1H-pyrrolo[3,2-c]pyridine]
- IC50 [1]: 1 to 5 µM
- inhibition at 10 µM [2]: > 70%

Structure (SMILES): Cc1c(F)cncc1N1CCc2[nH]c(-c3c(F)cccc3F)cc2C1 [Example 94, 2-(2,6-Difluoro-phenyl)-5-(5-fluoro-4-methyl-pyridin-3-yl)-4,5,6,7-tetrahydro-1H-pyrrolo[3,2-c]pyridine]
- inhibition at 10 µM [2]: > 70%

Structure (SMILES): Cc1sc(-c2ncco2)nc1N1CCc2[nH]c(-c3c(F)cccc3Cl)cc2C1=O [Example 53, 2-(2-Chloro-6-fluoro-phenyl)-5-(5-methyl-2-oxazol-2-yl-thiazol-4-yl)-1,5,6,7-tetrahydro-pyrrolo[3,2-c]pyridin-4-one]
- inhibition at 10 µM [2]: > 70%

Structure (SMILES): O=C1c2cc(-c3c(F)cccc3Cl)[nH]c2CCN1c1c(F)cccc1F [Example 49, 2-(2-Chloro-6-fluoro-phenyl)-5-(2,6-difluoro-phenyl)-1,5,6,7-tetrahydro-pyrrolo[3,2-c]pyridin-4-one]
- inhibition at 10 µM [2]: > 70%

Structure (SMILES): Cc1sc(-c2cccnc2)nc1N1CCc2[nH]c(-c3c(F)cccc3Cl)cc2C1=O [Example 42, 2-(2-Chloro-6-fluoro-phenyl)-5-(5-methyl-2-pyridin-3-yl-thiazol-4-yl)-1,5,6,7-tetrahydro-pyrrolo[3,2-c]pyridin-4-one]
- inhibition at 10 µM [2]: > 70%

Structure (SMILES): Cc1sccc1N1CCc2[nH]c(-c3c(F)cccc3Cl)cc2C1=O [Example 51, 2-(2-Chloro-6-fluoro-phenyl)-5-(2-methyl-thiophen-3-yl)-1,5,6,7-tetrahydro-pyrrolo[3,2-c]pyridin-4-one]
- inhibition at 10 µM [2]: > 70%

Structure (SMILES): CNC(=O)c1ccc(N2CCc3[nH]c(-c4c(F)cccc4F)cc3C2)c(C)c1 [Example 80, 4-[2-(2,6-Difluoro-phenyl)-4,5,6,7-tetrahydro-1H-pyrrolo[3,2-c]pyridin-5-yl]-N,3-dimethyl-benzamide]
- inhibition at 10 µM [2]: > 70%

Structure (SMILES): Cc1cc(N)ncc1N1CCc2[nH]c(-c3c(F)cccc3F)cc2C1 [Example 95, [5-[2-(2,6-Difluoro-phenyl)-4,5,6,7-tetrahydro-1H-pyrrolo[3,2-c]pyridin-5-yl]-4-methyl-pyridin-2-yl]-amine]
- inhibition at 10 µM [2]: > 70%
